{"source": "patent US20260335229A1", "about": "“NOVEL COMPOSITIONS” (priority 2025, published 2026)", "key": {"Gram-positive bacteria": {"tested_on": "Gram-positive bacteria", "conditions": "background statement; cited from earlier work"}, "[1]": {"test": "Solubility observed on preparing formulations", "assay_type": "physicochemical", "conditions": "pH 5.5 versus pH 5.0"}, "[2]": {"conditions": "21 °C and standard pressure; cited from earlier work"}}, "note": "Structures can show the parent of a compound that is named as a salt."}
{"smiles": "CN[C@H]1C(=O)N[C@@H]2Cc3ccc(cc3)Oc3cc4cc(c3O[C@@H]3O[C@H](C(=O)O)[C@@H](O)[C@H](O)[C@H]3NC(=O)CCCCCCCCC(C)C)Oc3ccc(cc3Cl)[C@@H](O)[C@@H]3NC(=O)[C@H](NC(=O)[C@@H]4NC(=O)[C@@H](NC2=O)c2cc(cc(O)c2Cl)Oc2cc1ccc2O)c1ccc(O)c(c1)-c1c(O[C@H]2O[C@H](CO)[C@@H](O)[C@H](O)[C@@H]2O)cc(O)cc1[C@@H](C(=O)NCCCN(C)C)NC3=O", "note": "[Dalbavancin]", "values": [{"measurement": "Antibiotic activity", "setting": "Gram-positive bacteria", "value": "strong antibiotic activity"}]}
{"smiles": "CN[C@H]1C(=O)N[C@@H]2Cc3ccc(cc3)Oc3cc4cc(c3O[C@@H]3O[C@H](C(=O)O)[C@@H](O)[C@H](O)[C@H]3NC(=O)CCCCCCCCC(C)C)Oc3ccc(cc3Cl)[C@@H](O)[C@@H]3NC(=O)[C@H](NC(=O)[C@@H]4NC(=O)[C@@H](NC2=O)c2cc(cc(O)c2Cl)Oc2cc1ccc2O)c1ccc(O)c(c1)-c1c(O[C@H]2O[C@H](CO)[C@@H](O)[C@H](O)[C@@H]2O)cc(O)cc1[C@@H](C(=O)NCCCN(C)C)NC3=O", "note": "[dalbavancin hydrochloride]", "values": [{"measurement": "Solubility", "setting": "[1]", "value": "reduced solubility"}]}
{"smiles": "CC(O)C(=O)O", "note": "(stereo not drawn) [lactic acid]", "values": [{"measurement": "pKa", "setting": "[2]", "value": 3.7}]}
